From patent US12312332B2 (Merck Sharp & Dohme LLC., priority 2019, dated 2025)

Target: T1, human OX2R (Homo sapiens, UniProt O43614)
T1 construct: expressed in transfected cells; host or cells: Chinese hamster ovary (CHO) cells, kept under G418 selection
T1 sequence (O43614 1-444): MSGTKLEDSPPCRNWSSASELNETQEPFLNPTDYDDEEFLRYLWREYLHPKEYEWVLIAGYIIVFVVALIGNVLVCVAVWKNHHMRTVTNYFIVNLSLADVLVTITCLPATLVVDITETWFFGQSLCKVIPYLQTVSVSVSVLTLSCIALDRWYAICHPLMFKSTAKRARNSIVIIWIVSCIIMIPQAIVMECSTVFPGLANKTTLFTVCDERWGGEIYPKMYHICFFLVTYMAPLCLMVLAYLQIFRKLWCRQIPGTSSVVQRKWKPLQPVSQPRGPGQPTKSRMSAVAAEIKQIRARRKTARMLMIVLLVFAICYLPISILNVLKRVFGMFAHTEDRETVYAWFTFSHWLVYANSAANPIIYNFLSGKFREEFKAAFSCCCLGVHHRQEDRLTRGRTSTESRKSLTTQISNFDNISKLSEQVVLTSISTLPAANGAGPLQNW
Test: IPOne (IP-One) orexin receptor agonist assay in CHO cells expressing human OX2R
Type: cell-based
Conditions: for EC50: CHO cells expressing human OX2R, IP-One detection, 2 hours incubation, four parameter logistic fit, read-out: OX2R Potency, EC50; for % max agonist effect (Emax): human OX2R, percentage of sample raw value/mean max effect (reference compound at 1 uM with 100% activity)

SMILES	EC50 [nM]	% max agonist effect (Emax) [%]
CS(=O)(=O)N[C@H]1CCN(c2cnc3occc3c2)[C@H]1CO[C@H]1CC[C@@H](c2ccccc2)CC1 [Example 92, N-((2R,3S)-1-(furo[2,3-b]pyridin-5-yl)-2-((((CIS)-4-phenylcyclohexyl)oxy)methyl)pyrrolidin-3-yl)methanesulfonamide]	326	100.2
Cn1cc(N2CC[C@H](NS(C)(=O)=O)[C@@H]2CO[C@H]2CC[C@@H](c3ccccc3)CC2)cn1 [Example 40, N-((2R,3S)-1-(1-methyl-1H-pyrazol-4-yl)-2-((((CIS)-4-phenylcyclohexyl)oxy)methyl)pyrrolidin-3-yl)methanesulfonamide]	431	98.8
Cc1ccnc(N2CC[C@H](NS(C)(=O)=O)[C@@H]2CO[C@H]2CC[C@@H](c3ccccc3)CC2)c1 [Example 144, N-((2R,3S)-1-(4-methylpyridin-2-yl)-2-((((CIS)-4-phenylcyclohexyl)oxy)methyl)pyrrolidin-3-yl)methanesulfonamide]	794	98
CS(=O)(=O)N[C@H]1CCN(c2nc(O)cs2)[C@H]1CO[C@H]1CC[C@@H](c2ccccc2)CC1 [Example 107, N-((2R,3S)-1-(4-hydroxythiazol-2-yl)-2-((((CIS)-4-phenylcyclohexyl)oxy)methyl)pyrrolidin-3-yl)methanesulfonamide]	676	97.2
CS(=O)(=O)N[C@H]1CCN(c2cnc3ccoc3c2)[C@H]1CO[C@H]1CC[C@@H](c2ccccc2)CC1 [Example 91, N-((2R,3S)-1-(furo[3,2-b]pyridin-6-yl)-2-((((CIS)-4-phenylcyclohexyl)oxy)methyl)pyrrolidin-3-yl)methanesulfonamide]	803	99.0
CS(=O)(=O)N[C@H]1CCN(c2cc(F)cnc2O)[C@H]1CO[C@H]1CC[C@@H](c2ccccc2)CC1 [Example 129, N-((2R,3S)-1-(5-fluoro-2-hydroxypyridin-3-yl)-2-((((CIS)-4-phenylcyclohexyl)oxy)methyl)pyrrolidin-3-yl)methanesulfonamide]	821	99.7
Cc1cncc(N2CC[C@H](NS(C)(=O)=O)[C@@H]2CO[C@H]2CC[C@@H](c3ccccc3)CC2)n1 [Example 62, N-((2R,3S)-1-(6-methylpyrazin-2-yl)-2-((((CIS)-4-phenylcyclohexyl)oxy)methyl)pyrrolidin-3-yl)methanesulfonamide]	330	100.6
Cc1nc(-c2ccccc2)sc1N1CC[C@H](NS(C)(=O)=O)[C@@H]1CO[C@H]1CC[C@@H](c2ccccc2)CC1 (relative stereo) [Example 11, N-((CIS)-1-(4-methyl-2-phenylthiazol-5-yl)-2-((((CIS)-4-phenylcyclohexyl)oxy)methyl)pyrrolidin-3-yl)methanesulfonamide]	3450	87.7
Cn1cnc(N2CC[C@H](NS(C)(=O)=O)[C@@H]2CO[C@H]2CC[C@@H](c3ccccc3)CC2)n1 [Example 14, N-((2R,3S)-1-(1-Methyl-1H-1,2,4-triazol-3-yl)-2-((((CIS)-4-phenylcyclohexyl)oxy)methyl)-pyrrolidin-3-yl)methanesulfonamide]	3720	87.9
COc1ccc(N2CC[C@H](NS(C)(=O)=O)[C@@H]2CO[C@H]2CC[C@@H](c3ccccc3)CC2)cn1 [Example 53, N-((2R,3S)-1-(6-methoxypyridin-3-yl)-2-((((CIS)-4-phenylcyclohexyl)oxy)methyl)pyrrolidin-3-yl)methanesulfonamide]	223	100.6
CS(=O)(=O)N[C@H]1CCN(c2cccc(O)c2)[C@H]1CO[C@H]1CC[C@@H](c2ccccc2)CC1 [Example 155, N-((2R,3S)-1-(3-hydroxyphenyl)-2-((((CIS)-4-phenylcyclohexyl)oxy)methyl)pyrrolidin-3-yl)methanesulfonamide]	1860	94.4
Cn1cc(N2CC[C@H](NS(C)(=O)=O)[C@@H]2CO[C@H]2CC[C@@H](c3ccccc3)CC2)ccc1=O [Example 112, N-((2R,3S)-1-(1-methyl-6-oxo-1,6-dihydropyridin-3-yl)-2-((((CIS)-4-phenylcyclohexyl)oxy)methyl)pyrrolidin-3-yl)methanesulfonamide]	4650	88.2
Cc1nnc(N2CC[C@H](NS(C)(=O)=O)[C@@H]2CO[C@H]2CC[C@@H](c3ccccc3)CC2)s1 (relative stereo) [Example 10, N-((CIS)-1-(5-methyl-1,3,4-thiadiazol-2-yl)-2-((((CIS)-4-phenylcyclohexyl)oxy)methyl)pyrrolidin-3-yl)methanesulfonamide]	242	99.6
Cc1ncsc1N1CC[C@H](NS(C)(=O)=O)[C@@H]1CO[C@H]1CC[C@@H](c2ccccc2)CC1 [Example 83, N-((2R,3S)-1-(4-methylthiazol-5-yl)-2-((((CIS)-4-phenylcyclohexyl)oxy)methyl)pyrrolidin-3-yl)methanesulfonamide]	1070	94.8
CS(=O)(=O)N[C@H]1CCN(c2csc(-c3ccncc3)n2)[C@H]1CO[C@H]1CC[C@@H](c2ccccc2)CC1 (relative stereo) [Example 13, N-((CIS)-2-((((CIS)-4-phenylcyclohexyl)oxy)methyl)-1-(2-(pyridin-4-yl)thiazol-4-yl)pyrrolidin-3-yl)methanesulfonamide]	1720	83.9

The next compounds have a lower EC50 than those just listed; values first:

EC50 [nM]	% max agonist effect (Emax) [%]	SMILES
162	100.9	CS(=O)(=O)N[C@H]1CCN(c2ccc(OC(F)F)nc2)[C@H]1CO[C@H]1CC[C@@H](c2ccccc2)CC1 [Example 58, N-((2R,3S)-1-(6-(difluoromethoxy)pyridin-3-yl)-2-((((CIS)-4-phenylcyclohexyl)oxy)methyl)pyrrolidin-3-yl)methanesulfonamide]
152	101.2	Cn1cc(N2CC[C@H](NS(C)(=O)=O)[C@@H]2CO[C@H]2CC[C@@H](c3ccccc3)CC2)nn1 (relative stereo) [Example 8, N-((CIS)-1-(1-methyl-1H-1,2,3-triazol-4-yl)-2-((((CIS)-4-phenylcyclohexyl)oxy)methyl)pyrrolidin-3-yl)methanesulfonamide]
59.2	100	Cc1cccnc1N1CC[C@H](NS(C)(=O)=O)[C@@H]1CO[C@H]1CC[C@@H](c2ccccc2)CC1 [Example 125, N-((2R,3S)-1-(3-methylpyridin-2-yl)-2-((((CIS)-4-phenylcyclohexyl)oxy)methyl)pyrrolidin-3-yl)methanesulfonamide]
52.3	100.5	CS(=O)(=O)N[C@H]1CCN(c2cc[nH]c(=O)c2)[C@H]1CO[C@H]1CC[C@@H](c2ccccc2)CC1 [Example 154, N-((2R,3S)-1-(2-oxo-1,2-dihydropyridin-4-yl)-2-((((CIS)-4-phenylcyclohexyl)oxy)methyl)pyrrolidin-3-yl)methanesulfonamide]
35.8	101.8	COc1cnc(N2CC[C@H](NS(C)(=O)=O)[C@@H]2CO[C@H]2CC[C@@H](c3ccccc3)CC2)cc1O [Example 119, N-((2R,3S)-1-(4-hydroxy-5-methoxypyridin-2-yl)-2-((((CIS)-4-phenylcyclohexyl)oxy)methyl)pyrrolidin-3-yl)methanesulfonamide]
29.3	101.1	Cn1cc(F)c(=O)cc1N1CC[C@H](NS(C)(=O)=O)[C@@H]1CO[C@H]1CC[C@@H](c2ccccc2)CC1 [Example 88, N-((2R,3S)-1-(5-fluoro-1-methyl-4-oxo-1,4-dihydropyridin-2-yl)-2-((((CIS)-4-phenylcyclohexyl)oxy)methyl)pyrrolidin-3-yl)methanesulfonamide]
20.7	101.7	CS(=O)(=O)N[C@H]1CCN(c2ccc[n+]([O-])c2)[C@H]1CO[C@H]1CC[C@@H](c2ccccc2)CC1 [Example 134]
9.8	100.6	CS(=O)(=O)N[C@H]1CCN(c2ccc(C#N)nc2)[C@H]1CO[C@H]1CC[C@@H](c2ccccc2)CC1 [Example 145, N-((2R,3S)-1-(6-cyanopyridin-3-yl)-2-((((CIS)-4-phenylcyclohexyl)oxy)methyl)pyrrolidin-3-yl)methanesulfonamide]
1.4	101.8	CS(=O)(=O)N[C@H]1CCN(c2ncc(F)c(O)c2F)[C@H]1CO[C@H]1CC[C@@H](c2cccc(F)c2)CC1 [Example 163, N-((2R,3S)-1-(3,5-difluoro-4-hydroxypyridin-2-yl)-2-((((CIS)-4-(3-fluorophenyl)cyclohexyl)oxy)methyl)pyrrolidin-3-yl)methanesulfonamide]
0.72	98.6	C[C@@H]1C[C@H](NS(C)(=O)=O)[C@H](CO[C@H]2CC[C@@H](c3cccc(F)c3)CC2)N1c1[nH]ccc(=O)c1F [Example 164, N-((2R,3S,5R)-1-(3-fluoro-4-oxo-1,4-dihydropyridin-2-yl)-2-((((CIS)-4-(3-fluorophenyl)cyclohexyl)oxy)methyl)-5-methylpyrrolidin-3-yl)methanesulfonamide]
